Measured values: doi:10.1101/2023.08.20.554024v1, “Structural framework for the understanding spectroscopic and functional signatures of the cyanobacterial Orange Carotenoid Protein families” (biorxiv, 2023)

Experiments:
SynOCP1 = target: T1, SynOCP1 (Synechocystis sp. PCC 6803, UniProt P74102); test: absorbance spectrum and photocycle of the holoprotein; assay type: binding; conditions: bound in E. coli making echinenone; pH 7.6, 150 mM NaCl
T1 construct: gene slr1963; full length from E. coli, tag removed, from earlier work; monomer in solution
T1 sequence (P74102 2-317): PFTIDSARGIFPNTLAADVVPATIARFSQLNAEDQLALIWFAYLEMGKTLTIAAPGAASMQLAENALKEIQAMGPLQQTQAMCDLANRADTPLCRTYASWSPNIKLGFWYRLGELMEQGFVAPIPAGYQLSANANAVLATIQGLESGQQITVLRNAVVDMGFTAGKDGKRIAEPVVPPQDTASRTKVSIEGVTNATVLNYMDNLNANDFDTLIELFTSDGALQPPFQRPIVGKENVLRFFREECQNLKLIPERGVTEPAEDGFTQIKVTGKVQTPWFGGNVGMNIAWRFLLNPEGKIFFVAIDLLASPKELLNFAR

CrinOCP2 = target: T2, CrinOCP2 (Crinalium epipsammum, UniProt K9VSN3, E26A); test: X-ray crystal structure, […] A; assay type: binding; conditions: bound in E. coli making echinenone; crystals pH 6.5; carotenoid site between NTD and CTD, keto group at Tyr201/Trp288
T2 construct: gene Cri9333_0045; full length from E. coli C41(DE3), codon-optimized, pET28a+, His-tag cut by thrombin leaving N-terminal GSH; monomer
T2 sequence (K9VSN3 1-319 E26A): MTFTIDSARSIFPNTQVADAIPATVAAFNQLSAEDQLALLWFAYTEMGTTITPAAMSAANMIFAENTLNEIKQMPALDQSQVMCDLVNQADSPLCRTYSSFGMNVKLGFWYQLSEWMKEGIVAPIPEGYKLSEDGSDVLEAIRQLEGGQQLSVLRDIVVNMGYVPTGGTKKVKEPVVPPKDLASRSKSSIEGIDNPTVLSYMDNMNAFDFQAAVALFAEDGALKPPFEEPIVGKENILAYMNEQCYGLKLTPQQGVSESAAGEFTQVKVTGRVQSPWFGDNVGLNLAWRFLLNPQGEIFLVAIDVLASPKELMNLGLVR

CC1=C(/C=C/C(C)=C/C=C/C(C)=C/C=C/C=C(C)/C=C/C=C(C)/C=C/C2=C(C)C(=O)CCC2(C)C)C(C)(C)CCC1 [ECH, echinenone]
absorbance spectrum and photocycle of the holoprotein (SynOCP1): All proteins were ECH-bound. | X-ray crystal structure, 2.2 A (CrinOCP2): HPLC analysis indicated that both OCP2 variants contained ECH as the predominant carotenoid
